Reference: ChEMBL document CHEMBL4152384, “Pyrtriazoles, a Novel Class of Store-Operated Calcium Entry Modulators: Discovery, Biological Profiling, and in Vivo Proof-of-Concept Efficacy in Acute Pancreatitis” (J Med Chem, 2018)

The compounds below were run against Stromal interaction molecule 1 & 2/Calcium release-activated calcium channel protein 1 (Mus musculus) (UniProt Q8BWG9+P70302+P83093) (assay: (§1) Modulation of STIM1/STIM2/Orai1 in mouse BV2 cells assessed as induction of store-operated calcium entry by measuring residual activity at 10 uM preincubated for 30 mins followed by tBhQ-mediated Ca2+ depletion and Ca2+ re-addition to extracellular solution measured for 600 secs by Fluo-4 AM-based fluorometric assay relative to control).
Format: cell-based

First: Oc1cccc(-c2cn(-c3ccc(-n4nc(C(F)(F)F)cc4C(F)(F)F)cc3)nn2)c1
Second: Nc1cccc(-c2cn(-c3ccc(-n4nc(C(F)(F)F)cc4C(F)(F)F)cc3)nn2)c1
The Activity of the first is lower: 95.9% for the first, 103% for the second.

Going from CCOC(=O)c1cnn(-c2ccc(-c3cn(-c4ccc(NC(C)=O)cc4)nn3)cc2)c1C(F)(F)F to CCOC(=O)c1cnn(-c2ccc(-n3cc(-c4ccc(NC(C)=O)cc4)nn3)cc2)c1C(F)(F)F, the Activity falls from 108% to 106%.

Compared with FC(F)(F)c1cc(C(F)(F)F)n(-c2ccc(-c3cn(-c4ccccn4)nn3)cc2)n1, FC(F)(F)c1cc(C(F)(F)F)n(-c2ccc(-n3cc(-c4ccccn4)nn3)cc2)n1 is higher in Activity: 88.8% for the first, 114% for the second.

Compared with CC(=O)Nc1cccc(-c2cn(-c3ccc(-n4nc(C(F)(F)F)cc4C(F)(F)F)cc3)nn2)c1, CC(=O)Nc1cccc(-n2cc(-c3ccc(-n4nc(C(F)(F)F)cc4C(F)(F)F)cc3)nn2)c1 is higher in Activity: 98.1% for the first, 101% for the second.

Compared with CCOC(=O)c1cnn(-c2ccc(-c3cn(-c4cccnc4)nn3)cc2)c1C(F)(F)F, CCOC(=O)c1cnn(-c2ccc(-n3cc(-c4cccnc4)nn3)cc2)c1C(F)(F)F is higher in Activity: 62.6% for the first, 91.6% for the second.

First: COc1cc(OC)cc(-n2cc(-c3ccc(-n4nc(C(F)(F)F)cc4C(F)(F)F)cc3)nn2)c1
Second: COc1cc(OC)cc(-c2cn(-c3ccc(-n4nc(C(F)(F)F)cc4C(F)(F)F)cc3)nn2)c1
The Activity of the first is higher: 93.7% for the first, 75.2% for the second.

Compared with COc1cc(-c2cn(-c3ccc(-n4nc(C(F)(F)F)cc4C(F)(F)F)cc3)nn2)ccc1O, COc1ccc(-c2cn(-c3ccc(-n4nc(C(F)(F)F)cc4C(F)(F)F)cc3)nn2)cc1OC is higher in Activity: 80.5% for the first, 109% for the second.

Compared with Nc1cccc(-n2cc(-c3ccc(-n4nc(C(F)(F)F)cc4C(F)(F)F)cc3)nn2)c1, Oc1cccc(-n2cc(-c3ccc(-n4nc(C(F)(F)F)cc4C(F)(F)F)cc3)nn2)c1 is higher in Activity: 85.6% for the first, 105% for the second.

Going from CCOC(=O)c1cnn(-c2ccc(-n3cc(-c4ccc(OC)c(OC)c4)nn3)cc2)c1C(F)(F)F to CCOC(=O)c1cnn(-c2ccc(-c3cn(-c4ccc(OC)c(OC)c4)nn3)cc2)c1C(F)(F)F, the Activity rises from 82.8% to 113%.

Going from CCOC(=O)c1cnn(-c2ccc(-c3cn(-c4ccncc4)nn3)cc2)c1C(F)(F)F to CCOC(=O)c1cnn(-c2ccc(-n3cc(-c4ccncc4)nn3)cc2)c1C(F)(F)F, the Activity falls from 79.8% to 68.1%.

Compared with CCOC(=O)c1cnn(-c2ccc(-n3cc(-c4ccc(OC)cc4)nn3)cc2)c1C(F)(F)F, CCOC(=O)c1cnn(-c2ccc(-c3cn(-c4ccc(OC)cc4)nn3)cc2)c1C(F)(F)F is lower in Activity: 95.6% for the first, 83.1% for the second.

Going from CCOC(=O)c1cnn(-c2ccc(-n3cc(-c4ccc(N)cc4)nn3)cc2)c1C(F)(F)F to CCOC(=O)c1cnn(-c2ccc(-c3cn(-c4ccc(N)cc4)nn3)cc2)c1C(F)(F)F, the Activity rises from 91.7% to 93.2%.

First: CCOC(=O)c1cnn(-c2ccc(-c3cn(-c4cccc(NC(C)=O)c4)nn3)cc2)c1C(F)(F)F
Second: CCOC(=O)c1cnn(-c2ccc(-n3cc(-c4cccc(NC(C)=O)c4)nn3)cc2)c1C(F)(F)F
The Activity of the first is higher: 117% for the first, 75.3% for the second.

Compared with CCOC(=O)c1cnn(-c2ccc(-c3cn(-c4ccc(Oc5ccccc5)cc4)nn3)cc2)c1C(F)(F)F, CCOC(=O)c1cnn(-c2ccc(-n3cc(-c4ccc(Oc5ccccc5)cc4)nn3)cc2)c1C(F)(F)F is lower in Activity: 101% for the first, 83.8% for the second.

Compared with Nc1ccc(-c2cn(-c3ccc(-n4nc(C(F)(F)F)cc4C(F)(F)F)cc3)nn2)cc1, Nc1ccc(-n2cc(-c3ccc(-n4nc(C(F)(F)F)cc4C(F)(F)F)cc3)nn2)cc1 is lower in Activity: 98.1% for the first, 90.2% for the second.

Going from O=C(O)c1cccc(-n2cc(-c3ccc(-n4nc(C(F)(F)F)cc4C(F)(F)F)cc3)nn2)c1 to COc1cccc(-n2cc(-c3ccc(-n4nc(C(F)(F)F)cc4C(F)(F)F)cc3)nn2)c1, the Activity rises from 80.2% to 113%.

Going from FC(F)(F)c1cc(C(F)(F)F)n(-c2ccc(-c3cn(-c4ccncc4)nn3)cc2)n1 to FC(F)(F)c1cc(C(F)(F)F)n(-c2ccc(-n3cc(-c4ccncc4)nn3)cc2)n1, the Activity rises from 84% to 94.7%.

Going from CCOC(=O)c1cnn(-c2ccc(-c3cn(-c4cccc(OC)c4)nn3)cc2)c1C(F)(F)F to CCOC(=O)c1cnn(-c2ccc(-n3cc(-c4cccc(OC)c4)nn3)cc2)c1C(F)(F)F, the Activity falls from 117% to 105%.

Going from CCOC(=O)c1cnn(-c2ccc(-n3cc(-c4ccc(Cl)cc4)nn3)cc2)c1C(F)(F)F to CCOC(=O)c1cnn(-c2ccc(-n3cc(-c4ccccc4)nn3)cc2)c1C(F)(F)F, the Activity falls from 88.6% to 86.1%.

Going from CCOC(=O)c1cnn(-c2ccc(-n3cc(CCCC(=O)O)nn3)cc2)c1C(F)(F)F to CCOC(=O)c1cnn(-c2ccc(-n3cc(-c4cccc(O)c4)nn3)cc2)c1C(F)(F)F, the Activity rises from 72.2% to 96.5%.

Compared with CCOC(=O)c1cnn(-c2ccc(-c3cn(-c4cccc(O)c4)nn3)cc2)c1C(F)(F)F, CCOC(=O)c1cnn(-c2ccc(-c3cn(-c4ccccc4)nn3)cc2)c1C(F)(F)F is lower in Activity: 106% for the first, 97.5% for the second.

Compared with CCOC(=O)c1cnn(-c2ccc(-n3cc(-c4cc(OC)cc(OC)c4)nn3)cc2)c1C(F)(F)F, CCOC(=O)c1cnn(-c2ccc(-c3cn(-c4cc(OC)cc(OC)c4)nn3)cc2)c1C(F)(F)F is higher in Activity: 99.4% for the first, 113% for the second.

First: FC(F)(F)c1cc(C(F)(F)F)n(-c2ccc(-c3cn(-c4ccc(Oc5ccccc5)cc4)nn3)cc2)n1
Second: FC(F)(F)c1cc(C(F)(F)F)n(-c2ccc(-n3cc(-c4ccc(Oc5ccccc5)cc4)nn3)cc2)n1
The Activity of the first is higher: 90.2% for the first, 73.5% for the second.

Compared with CCOC(=O)c1cnn(-c2ccc(-c3cn(-c4ccccn4)nn3)cc2)c1C(F)(F)F, CCOC(=O)c1cnn(-c2ccc(-n3cc(-c4ccccn4)nn3)cc2)c1C(F)(F)F is higher in Activity: 77% for the first, 81% for the second.

Compared with O=C(O)CCCn1cc(-c2ccc(-n3nc(C(F)(F)F)cc3C(F)(F)F)cc2)nn1, O=C(O)CCCc1cn(-c2ccc(-n3nc(C(F)(F)F)cc3C(F)(F)F)cc2)nn1 is lower in Activity: 81.7% for the first, 80.1% for the second.

Going from FC(F)(F)c1cc(C(F)(F)F)n(-c2ccc(-n3cc(-c4ccccc4)nn3)cc2)n1 to FC(F)(F)c1cc(C(F)(F)F)n(-c2ccc(-c3cn(-c4ccccc4)nn3)cc2)n1, the Activity rises from 99.2% to 99.7%.

Compared with COc1ccc(-c2cn(-c3ccc(-n4nc(C(F)(F)F)cc4C(F)(F)F)cc3)nn2)cc1, COc1ccc(-n2cc(-c3ccc(-n4nc(C(F)(F)F)cc4C(F)(F)F)cc3)nn2)cc1 is lower in Activity: 99.6% for the first, 78.7% for the second.

First: CCOC(=O)c1cnn(-c2ccc(-n3cc(-c4ccncc4F)nn3)cc2)c1C(F)(F)F
Second: CCOC(=O)c1cnn(-c2ccc(-n3cc(-c4ccccc4NC(C)=O)nn3)cc2)c1C(F)(F)F
The Activity of the first is higher: 107% for the first, 72% for the second.

First: FC(F)(F)c1cc(C(F)(F)F)n(-c2ccc(-n3cc(-c4cccnc4)nn3)cc2)n1
Second: FC(F)(F)c1cc(C(F)(F)F)n(-c2ccc(-c3cn(-c4cccnc4)nn3)cc2)n1
The Activity of the first is higher: 87.8% for the first, 77% for the second.

First: FC(F)(F)c1cc(C(F)(F)F)n(-c2ccc(-n3cc(-c4ccc(Cl)cc4)nn3)cc2)n1
Second: FC(F)(F)c1cc(C(F)(F)F)n(-c2ccc(-c3cn(-c4ccc(Cl)cc4)nn3)cc2)n1
The Activity of the first is lower: 106% for the first, 116% for the second.

Going from Fc1cnccc1-n1cc(-c2ccc(-n3nc(C(F)(F)F)cc3C(F)(F)F)cc2)nn1 to Fc1cnccc1-c1cn(-c2ccc(-n3nc(C(F)(F)F)cc3C(F)(F)F)cc2)nn1, the Activity falls from 106% to 90.2%.

Going from CC(=O)Nc1ccccc1-c1cn(-c2ccc(-n3nc(C(F)(F)F)cc3C(F)(F)F)cc2)nn1 to CC(=O)Nc1ccc(-n2cc(-c3ccc(-n4nc(C(F)(F)F)cc4C(F)(F)F)cc3)nn2)cc1, the Activity rises from 93.2% to 98.8%.

Going from COc1cccc(-c2cn(-c3ccc(-n4nc(C(F)(F)F)cc4C(F)(F)F)cc3)nn2)c1 to COc1ccc(-n2cc(-c3ccc(-n4nc(C(F)(F)F)cc4C(F)(F)F)cc3)nn2)cc1OC, the Activity falls from 105% to 94.3%.

CC(=O)Nc1ccc(-c2cn(-c3ccc(-n4nc(C(F)(F)F)cc4C(F)(F)F)cc3)nn2)cc1 gave an Activity of 98.5%.

These compounds were tested against Short transient receptor potential channel 1 & 3/Stromal interaction molecule 1/Calcium release-activated calcium channel protein 1 (Homo sapiens) (UniProt Q96D31+Q13507+Q13586+P48995) (assay: as §1, with “TRPC1/TRPC3/STIM1/Orai1” for “STIM1/STIM2/Orai1”, “HEK” for “mouse BV2”).
Sequence of Short transient receptor potential channel 1 & 3/Stromal interaction molecule 1/Calcium release-activated calcium channel protein 1 (Homo sapiens) (P48995 whole entry partner): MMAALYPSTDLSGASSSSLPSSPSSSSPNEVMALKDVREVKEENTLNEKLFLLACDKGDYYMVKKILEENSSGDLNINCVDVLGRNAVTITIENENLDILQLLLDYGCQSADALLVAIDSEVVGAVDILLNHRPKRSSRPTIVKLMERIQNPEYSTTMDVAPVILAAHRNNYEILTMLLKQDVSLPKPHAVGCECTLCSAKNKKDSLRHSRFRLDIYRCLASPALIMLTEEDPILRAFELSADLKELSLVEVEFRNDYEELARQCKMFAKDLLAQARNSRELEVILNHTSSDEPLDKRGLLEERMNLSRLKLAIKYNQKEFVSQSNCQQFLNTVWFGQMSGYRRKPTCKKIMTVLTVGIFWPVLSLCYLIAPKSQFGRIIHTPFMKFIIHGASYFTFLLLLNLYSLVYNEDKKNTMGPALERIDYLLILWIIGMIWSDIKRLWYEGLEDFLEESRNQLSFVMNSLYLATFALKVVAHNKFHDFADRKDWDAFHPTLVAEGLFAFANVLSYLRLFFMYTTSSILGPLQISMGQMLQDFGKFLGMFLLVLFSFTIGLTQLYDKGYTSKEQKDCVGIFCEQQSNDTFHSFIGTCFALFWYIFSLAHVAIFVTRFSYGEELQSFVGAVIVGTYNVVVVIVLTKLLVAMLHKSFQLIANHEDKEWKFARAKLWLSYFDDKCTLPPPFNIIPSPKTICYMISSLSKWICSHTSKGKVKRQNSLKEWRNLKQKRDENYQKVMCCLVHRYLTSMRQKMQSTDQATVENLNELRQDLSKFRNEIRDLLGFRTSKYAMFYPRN
Sequence of Short transient receptor potential channel 1 & 3/Stromal interaction molecule 1/Calcium release-activated calcium channel protein 1 (Homo sapiens) (Q13507 whole entry partner): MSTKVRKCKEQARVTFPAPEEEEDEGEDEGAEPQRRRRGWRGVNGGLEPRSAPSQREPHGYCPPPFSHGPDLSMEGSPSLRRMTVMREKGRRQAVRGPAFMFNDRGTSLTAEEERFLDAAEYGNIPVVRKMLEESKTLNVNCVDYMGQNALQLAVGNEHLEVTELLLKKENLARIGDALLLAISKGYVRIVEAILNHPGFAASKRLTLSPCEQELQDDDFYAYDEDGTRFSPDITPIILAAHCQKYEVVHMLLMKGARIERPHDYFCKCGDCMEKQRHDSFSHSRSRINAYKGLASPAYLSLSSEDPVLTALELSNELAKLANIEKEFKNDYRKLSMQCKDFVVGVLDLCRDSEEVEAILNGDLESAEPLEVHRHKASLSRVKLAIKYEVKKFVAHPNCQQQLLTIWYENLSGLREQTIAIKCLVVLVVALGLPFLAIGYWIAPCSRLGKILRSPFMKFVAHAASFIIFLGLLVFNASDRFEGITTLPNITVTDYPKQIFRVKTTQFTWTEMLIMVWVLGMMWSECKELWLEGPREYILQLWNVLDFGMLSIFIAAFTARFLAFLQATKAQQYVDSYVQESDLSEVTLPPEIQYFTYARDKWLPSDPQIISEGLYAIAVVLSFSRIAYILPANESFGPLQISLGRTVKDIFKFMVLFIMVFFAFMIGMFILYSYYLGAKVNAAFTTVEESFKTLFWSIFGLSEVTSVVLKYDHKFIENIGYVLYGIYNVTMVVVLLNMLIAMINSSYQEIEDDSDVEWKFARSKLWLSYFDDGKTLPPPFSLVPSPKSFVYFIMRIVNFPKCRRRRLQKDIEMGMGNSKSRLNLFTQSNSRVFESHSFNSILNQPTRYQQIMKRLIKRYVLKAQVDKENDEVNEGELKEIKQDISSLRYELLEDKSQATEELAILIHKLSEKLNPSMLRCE
Sequence of Short transient receptor potential channel 1 & 3/Stromal interaction molecule 1/Calcium release-activated calcium channel protein 1 (Homo sapiens) (Q13586 23-685 partner limits assumed): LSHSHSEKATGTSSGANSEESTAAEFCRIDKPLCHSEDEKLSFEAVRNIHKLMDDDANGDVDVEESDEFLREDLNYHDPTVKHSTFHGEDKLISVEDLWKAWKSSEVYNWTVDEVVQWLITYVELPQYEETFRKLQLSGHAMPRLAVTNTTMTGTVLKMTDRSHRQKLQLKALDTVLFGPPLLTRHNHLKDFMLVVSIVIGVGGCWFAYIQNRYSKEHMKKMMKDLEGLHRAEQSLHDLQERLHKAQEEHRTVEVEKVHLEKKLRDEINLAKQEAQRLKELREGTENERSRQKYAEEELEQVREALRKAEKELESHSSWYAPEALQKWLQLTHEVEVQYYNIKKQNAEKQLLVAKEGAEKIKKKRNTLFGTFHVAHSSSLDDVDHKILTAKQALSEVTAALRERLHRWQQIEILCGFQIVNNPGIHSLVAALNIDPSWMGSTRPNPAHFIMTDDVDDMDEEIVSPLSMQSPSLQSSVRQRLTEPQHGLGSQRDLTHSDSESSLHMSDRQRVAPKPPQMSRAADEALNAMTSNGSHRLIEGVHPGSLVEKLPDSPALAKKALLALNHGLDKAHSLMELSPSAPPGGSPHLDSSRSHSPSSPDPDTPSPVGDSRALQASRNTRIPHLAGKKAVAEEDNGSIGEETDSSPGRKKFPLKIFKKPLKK
Sequence of Short transient receptor potential channel 1 & 3/Stromal interaction molecule 1/Calcium release-activated calcium channel protein 1 (Homo sapiens) (Q96D31 whole entry): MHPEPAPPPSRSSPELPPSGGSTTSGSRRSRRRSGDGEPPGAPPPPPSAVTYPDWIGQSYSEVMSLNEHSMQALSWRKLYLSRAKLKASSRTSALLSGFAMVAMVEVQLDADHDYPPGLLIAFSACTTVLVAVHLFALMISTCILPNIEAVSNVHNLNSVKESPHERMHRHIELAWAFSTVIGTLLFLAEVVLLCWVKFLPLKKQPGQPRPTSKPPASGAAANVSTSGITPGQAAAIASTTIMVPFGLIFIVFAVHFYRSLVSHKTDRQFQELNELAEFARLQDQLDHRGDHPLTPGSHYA
Format: cell-based

NC(=O)c1cnn(-c2ccc(-n3cc(-c4cccc(C(=O)O)c4)nn3)cc2)c1C(F)(F)F and O=C(O)c1cccc(-c2cn(-c3ccc(-n4ncc(C(=O)O)c4C(F)(F)F)cc3)nn2)c1 cannot be ordered by Activity: > 90% for the first, > 90% for the second.

CC(C)CCOC(=O)c1cnn(-c2ccc(-n3cc(-c4cccc(C(=O)O)c4)nn3)cc2)c1C(F)(F)F and CC(C)NC(=O)c1cnn(-c2ccc(-n3cc(-c4cccc(C(=O)O)c4)nn3)cc2)c1C(F)(F)F cannot be ordered by Activity: > 90% for the first, > 90% for the second.

First: O=C(O)c1cccc(-c2cn(-c3ccc(-n4ncc(C(=O)OCCN5CCOCC5)c4C(F)(F)F)cc3)nn2)c1
Second: CCOC(=O)c1cnn(-c2ccc(-n3cc(-c4cccc(C(N)=O)c4)nn3)cc2)c1C(F)(F)F
The Activity of the first is higher: > 90% for the first, 72.1% for the second.

CCOC(=O)c1cnn(-c2ccc(-n3nncc3-c3cccc(C(=O)O)c3)cc2)c1C(F)(F)F and CCOC(=O)c1cnn(-c2ccc(-n3cc(-c4cccc(C(=O)OC)c4)nn3)cc2)c1C(F)(F)F cannot be ordered by Activity: > 90% for the first, > 90% for the second.

CCOC(=O)c1cnn(-c2ccc(-c3cn(-c4cccc(C(C)=O)c4)nn3)cc2)c1C(F)(F)F and CCOC(=O)c1cnn(-c2ccc(-c3cn(-c4cccc(CO)c4)nn3)cc2)c1C(F)(F)F cannot be ordered by Activity: > 90% for the first, > 90% for the second.

Going from CCOC(=O)c1cnn(-c2ccc(-n3cc(-c4cccc(S(N)(=O)=O)c4)nn3)cc2)c1C(F)(F)F to CCOC(=O)c1cnn(-c2ccc(-n3cc(-c4cccc(C(=O)NS(C)(=O)=O)c4)nn3)cc2)c1C(F)(F)F, the Activity rises from 83.6% to > 90%.

CC(C)=CCC/C(C)=C/COC(=O)c1cnn(-c2ccc(-n3cc(-c4cccc(C(=O)O)c4)nn3)cc2)c1C(F)(F)F and O=C(O)c1cccc(-c2cn(-c3ccc(-n4ncc(C(=O)OCc5ccncc5)c4C(F)(F)F)cc3)nn2)c1 cannot be ordered by Activity: > 90% for the first, > 90% for the second.

CCOC(=O)c1cnn(-c2ccc(C(=O)Nc3cccc(C(=O)O)c3)cc2)c1C(F)(F)F and O=C(O)c1cccc(-c2cn(-c3ccc(-n4ncc(CO)c4C(F)(F)F)cc3)nn2)c1 cannot be ordered by Activity: > 90% for the first, > 90% for the second.
